Data published in ChEMBL document CHEMBL2029295, “Discovery and optimization of a potent and selective triazolopyridinone series of c-Met inhibitors” (Bioorg Med Chem Lett, 2012).
In brackets after ≈: the same amount, converted by molar mass.

What was measured:
[1] = Solubility of the compound in 0.1N HCl; assay type: physicochemical
[2] = Solubility of the compound in phosphate buffered saline; assay type: physicochemical
[3] = Solubility of the compound in simulated intestinal fluid; assay type: physicochemical
[4] = Intrinsic clearance in rat liver microsomes; assay type: ADME, Microsome; conditions: read-out: CLH
[5] = Intrinsic clearance in mouse liver microsomes; assay type: ADME, Microsome; conditions: read-out: CLH
[6] = Intrinsic clearance in human liver microsomes; assay type: ADME, Microsome; conditions: read-out: CLH
[7] = Plasma protein binding in rat by equilibrium dialysis; assay type: ADME, cell-free; conditions: read-out: PPB (converted)
[8] = Plasma protein binding in mouse by equilibrium dialysis; assay type: ADME, cell-free; conditions: read-out: PPB (converted)
[9] = Plasma protein binding in human by equilibrium dialysis; assay type: ADME, cell-free; conditions: read-out: PPB (converted)
[10] = Clearance in Sprague-Dawley rat at 0.25 mg/kg, iv; assay type: ADME, organism-based; parameters: dose 0.25 mg/kg, route intravenous; conditions: in vivo
[11] = Volume of distribution at steady state in Sprague-Dawley rat at 0.25 mg/kg, iv; assay type: ADME, organism-based; parameters: dose 0.25 mg/kg, route intravenous; conditions: in vivo, read-out: Vdss
[12] = Half life in Sprague-Dawley rat at 0.25 mg/kg, iv; assay type: ADME, organism-based; parameters: dose 0.25 mg/kg, route intravenous; conditions: in vivo
[13] = AUC (0 to infinity) in Sprague-Dawley rat at 2 mg/kg, po; assay type: ADME, organism-based; parameters: time infinity, dose 2 mg/kg, route oral; conditions: plasma
[14] = Oral bioavailability in Sprague-Dawley rat at 2 mg/kg; assay type: ADME, organism-based; conditions: in vivo
[15] = target: Vascular endothelial growth factor receptor 2 (Homo sapiens) (UniProt P35968); test: Inhibition of VEGFR2 assessed as remaining activity at 1 uM relative to control
Vascular endothelial growth factor receptor 2 (Homo sapiens), sequence (P35968 whole entry): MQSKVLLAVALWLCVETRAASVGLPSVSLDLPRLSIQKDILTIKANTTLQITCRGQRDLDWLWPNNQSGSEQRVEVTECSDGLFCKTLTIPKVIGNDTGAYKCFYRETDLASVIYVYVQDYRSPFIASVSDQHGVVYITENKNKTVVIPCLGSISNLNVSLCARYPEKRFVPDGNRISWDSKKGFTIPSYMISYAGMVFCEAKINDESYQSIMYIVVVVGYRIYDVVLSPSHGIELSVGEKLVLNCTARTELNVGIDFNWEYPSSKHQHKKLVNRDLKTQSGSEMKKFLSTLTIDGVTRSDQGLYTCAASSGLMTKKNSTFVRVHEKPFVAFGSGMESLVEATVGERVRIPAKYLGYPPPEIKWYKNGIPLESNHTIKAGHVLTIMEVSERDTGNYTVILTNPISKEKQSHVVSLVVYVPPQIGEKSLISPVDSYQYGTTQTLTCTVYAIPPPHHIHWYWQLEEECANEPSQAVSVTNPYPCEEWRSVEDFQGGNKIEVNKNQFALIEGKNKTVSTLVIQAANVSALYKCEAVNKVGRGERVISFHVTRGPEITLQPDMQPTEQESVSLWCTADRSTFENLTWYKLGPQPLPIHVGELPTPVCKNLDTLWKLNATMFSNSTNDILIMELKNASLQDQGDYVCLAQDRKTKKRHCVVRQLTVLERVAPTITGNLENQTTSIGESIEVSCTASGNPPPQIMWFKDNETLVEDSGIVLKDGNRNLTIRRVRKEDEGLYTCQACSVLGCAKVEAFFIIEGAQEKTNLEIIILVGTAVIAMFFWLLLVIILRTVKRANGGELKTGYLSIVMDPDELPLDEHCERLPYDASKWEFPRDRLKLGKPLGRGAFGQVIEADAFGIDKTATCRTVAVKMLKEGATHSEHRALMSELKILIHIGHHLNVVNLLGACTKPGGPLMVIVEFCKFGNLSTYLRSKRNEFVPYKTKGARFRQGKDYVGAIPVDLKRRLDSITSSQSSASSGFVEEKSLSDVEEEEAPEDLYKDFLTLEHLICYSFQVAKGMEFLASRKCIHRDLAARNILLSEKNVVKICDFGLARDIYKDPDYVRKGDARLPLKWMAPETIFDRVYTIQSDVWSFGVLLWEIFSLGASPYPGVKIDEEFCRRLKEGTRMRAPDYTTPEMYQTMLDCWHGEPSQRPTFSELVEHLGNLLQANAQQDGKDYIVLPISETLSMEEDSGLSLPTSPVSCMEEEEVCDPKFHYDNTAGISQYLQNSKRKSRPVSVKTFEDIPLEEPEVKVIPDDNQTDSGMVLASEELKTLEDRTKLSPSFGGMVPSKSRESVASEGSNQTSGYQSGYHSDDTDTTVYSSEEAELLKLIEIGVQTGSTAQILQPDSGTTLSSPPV

[16] = target: Mast/stem cell growth factor receptor Kit (Homo sapiens) (UniProt P10721); test: Inhibition of KIT assessed as remaining activity at 1 uM relative to control
Mast/stem cell growth factor receptor Kit (Homo sapiens), sequence (P10721 whole entry): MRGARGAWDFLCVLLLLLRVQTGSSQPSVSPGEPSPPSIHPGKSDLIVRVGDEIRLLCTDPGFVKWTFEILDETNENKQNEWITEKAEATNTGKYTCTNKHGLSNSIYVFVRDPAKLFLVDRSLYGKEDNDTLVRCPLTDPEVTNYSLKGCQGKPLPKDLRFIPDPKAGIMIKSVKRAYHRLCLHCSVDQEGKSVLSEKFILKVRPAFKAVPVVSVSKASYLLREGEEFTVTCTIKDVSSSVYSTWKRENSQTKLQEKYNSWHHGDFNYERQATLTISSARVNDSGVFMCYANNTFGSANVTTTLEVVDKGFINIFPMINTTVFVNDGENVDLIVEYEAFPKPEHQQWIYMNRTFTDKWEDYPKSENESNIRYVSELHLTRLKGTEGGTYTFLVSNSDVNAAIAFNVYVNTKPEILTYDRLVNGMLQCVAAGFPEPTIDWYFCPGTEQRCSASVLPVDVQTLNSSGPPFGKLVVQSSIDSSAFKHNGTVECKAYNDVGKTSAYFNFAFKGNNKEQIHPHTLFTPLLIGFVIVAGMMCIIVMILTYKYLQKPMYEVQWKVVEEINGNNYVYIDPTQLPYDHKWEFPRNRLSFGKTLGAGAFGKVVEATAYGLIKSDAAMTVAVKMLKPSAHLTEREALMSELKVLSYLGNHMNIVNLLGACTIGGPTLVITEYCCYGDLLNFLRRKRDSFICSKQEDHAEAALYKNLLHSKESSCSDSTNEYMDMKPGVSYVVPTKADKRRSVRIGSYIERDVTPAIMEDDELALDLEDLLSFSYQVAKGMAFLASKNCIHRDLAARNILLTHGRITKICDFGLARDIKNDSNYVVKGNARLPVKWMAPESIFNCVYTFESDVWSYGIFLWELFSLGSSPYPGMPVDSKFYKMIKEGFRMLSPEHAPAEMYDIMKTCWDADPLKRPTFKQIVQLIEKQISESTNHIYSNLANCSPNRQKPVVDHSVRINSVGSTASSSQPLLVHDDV

[17] = target: Platelet-derived growth factor receptor beta (Homo sapiens) (UniProt P09619); test: Inhibition of PDGFRB assessed as remaining activity at 1 uM relative to control
Platelet-derived growth factor receptor beta (Homo sapiens), sequence (P09619 whole entry): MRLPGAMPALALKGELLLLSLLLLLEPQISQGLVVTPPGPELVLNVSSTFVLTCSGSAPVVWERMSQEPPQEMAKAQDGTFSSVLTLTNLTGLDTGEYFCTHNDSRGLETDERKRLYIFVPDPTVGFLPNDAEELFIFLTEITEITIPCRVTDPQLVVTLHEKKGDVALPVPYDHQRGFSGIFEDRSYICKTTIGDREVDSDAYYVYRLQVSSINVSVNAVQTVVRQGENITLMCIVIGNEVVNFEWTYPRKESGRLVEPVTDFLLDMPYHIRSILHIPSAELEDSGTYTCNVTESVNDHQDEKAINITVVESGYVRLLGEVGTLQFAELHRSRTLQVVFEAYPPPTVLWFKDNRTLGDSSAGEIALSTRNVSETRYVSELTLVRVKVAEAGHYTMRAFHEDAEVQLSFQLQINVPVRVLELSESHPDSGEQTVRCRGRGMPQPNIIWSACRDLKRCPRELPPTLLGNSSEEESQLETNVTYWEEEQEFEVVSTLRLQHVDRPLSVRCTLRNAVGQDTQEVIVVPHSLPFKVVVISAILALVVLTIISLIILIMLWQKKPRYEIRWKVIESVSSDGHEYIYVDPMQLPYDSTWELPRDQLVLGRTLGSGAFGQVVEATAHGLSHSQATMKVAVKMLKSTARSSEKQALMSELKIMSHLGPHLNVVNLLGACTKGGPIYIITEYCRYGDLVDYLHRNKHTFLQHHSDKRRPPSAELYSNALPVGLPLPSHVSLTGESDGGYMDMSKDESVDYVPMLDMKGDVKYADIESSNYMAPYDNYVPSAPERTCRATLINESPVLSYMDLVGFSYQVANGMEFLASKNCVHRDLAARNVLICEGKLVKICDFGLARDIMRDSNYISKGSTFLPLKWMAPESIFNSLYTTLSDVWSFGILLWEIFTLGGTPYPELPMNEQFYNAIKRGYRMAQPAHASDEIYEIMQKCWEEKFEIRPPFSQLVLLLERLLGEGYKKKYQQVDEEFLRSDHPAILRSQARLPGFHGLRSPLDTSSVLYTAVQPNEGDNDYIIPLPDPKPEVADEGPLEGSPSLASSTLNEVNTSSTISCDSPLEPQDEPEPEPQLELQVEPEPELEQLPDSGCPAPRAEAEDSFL

[18] = system: Mus musculus; test: Inhibition of HGF-induced phosphorylation of c-Met in BALB/c mice mouse liver at 10 mg/kg, po administered 1 to 24 hrs before HGF-induction measured after 5 mins; assay type: functional
[19] = system: Plasma; test: Plasma concentration in BALB/c mouse at 10 mg/kg, po; assay type: ADME, organism-based; parameters: dose 10 mg/kg, route oral; conditions: in vivo

Row | SMILES | solubility [1] | solubility [2] | solubility [3] | microsomal CLint [4] | microsomal CLint [5] | microsomal CLint [6] | fraction unbound [7] | fraction unbound [8] | fraction unbound [9] | clearance [10] | Vd [11] | half-life [12] | AUC(0-inf) [13] | bioavailability [14] | Activity [15] | Activity [16] | Activity [17] | inhibition in vivo at 10 mg/kg [18] | concentration [19]
1 | Cc1cc(N2CCc3nnn(Cc4ccc5ncccc5c4)c3C2=O)sn1 | 43.2 µg/mL (≈ 115 µM) | 2.2 µg/mL (≈ 5.84 µM) | < 1 µg/mL |  |  |  |  |  |  |  |  |  |  |  |  |  |  |  | 
2 | Cc1cc(-n2ccc3nnn(Cc4ccc5ncccc5c4)c3c2=O)sn1 | 80.1 µg/mL (≈ 214 µM) | < 1 µg/mL | 4.8 µg/mL (≈ 12.8 µM) |  |  |  |  |  |  |  |  |  |  |  |  |  |  |  | 
3 | O=C1c2c(nnn2Cc2ccc3ncccc3c2)CCN1c1ccccc1 | ≥ 200 µg/mL | ≥ 200 µg/mL | 60.4 µg/mL (≈ 170 µM) |  |  |  |  |  |  |  |  |  |  |  |  |  |  |  | 
4 | COCCOc1cnc2ccc([C@H](C)n3nnc4ccn(-c5ccc(F)c(F)c5)c(=O)c43)cc2c1 | 128 µg/mL (≈ 267 µM) | 11.1 µg/mL (≈ 23.2 µM) | 37.7 µg/mL (≈ 79 µM) | 105 µL/min/mg | 98 µL/min/mg | 120 µL/min/mg | 0.02 | 0.044 | 0.045 | 18.8 mL/min/kg | 2.38 L/kg | 109 min | 638 ng·h/mL | 36% |  |  |  |  | 
5 | Cc1cc(-n2ccc3nnn([C@@H](C)c4ccc5ncccc5c4)c3c2=O)sn1 | ≥ 200 µg/mL | 4.5 µg/mL (≈ 11.6 µM) | 22.4 µg/mL (≈ 57.7 µM) |  |  |  |  |  |  |  |  |  |  |  |  |  |  |  | 
6 | COCCOc1cnc2ccc(Cn3nnc4ccn(-c5cc(C)ns5)c(=O)c43)cc2c1 | 13.7 µg/mL (≈ 30.5 µM) | 2.5 µg/mL (≈ 5.57 µM) | 9.8 µg/mL (≈ 21.9 µM) |  |  |  |  |  |  |  |  |  |  |  |  |  |  |  | 
7 | COCCOc1cnc2ccc([C@H](C)n3nnc4ccn(-c5cc(C)ns5)c(=O)c43)cc2c1 | 37 µg/mL (≈ 80 µM) | 8.7 µg/mL (≈ 18.8 µM) | 39.7 µg/mL (≈ 85.8 µM) | 89 µL/min/mg | 68 µL/min/mg | 84 µL/min/mg | 0.018 | 0.027 | 0.012 | 9.32 mL/min/kg | 2.53 L/kg | 204 min | 1560 ng·h/mL | 43% | 34% | 26% | 10% | 89% | < 200 nM
